These results are taken from patent US20260325538A1, “THERAPY” (priority 2023, published 2026).

For assay [1], the system named is Klebsiella pneumoniae K66-45 (NDM-1). The assay can be described thus: Checkerboard MIC, fixed ratio of sBLI to antibiotic (Examples 3-6). Format: cell-based. Conditions: caMHB 29.4 μM Zn2+.
From the text: (§1) The antibiotics and serine β-lactamase-inhibitors (sBLIs) were purchased from the following suppliers: Ceftazidime (CAZ): Sigma-Aldrich; Cefepime (FEP): Sigma-Aldrich; Cefpodoxime (CEFP): MedChemExpress; Sulbactam (SUL): Sigma-Aldrich Avibactam (AVI): Biosynth; Vaborbactam (VAB): ABCR; Tazobactam (TAZ): Sigma-Aldrich; Taniborbactam (TAN): Sigma-Aldrich.
(§2) In each of Examples 3-23, the compound of Example 26 of WO 2018/033719 was employed as the zinc chelator. The following abbreviations are used in these examples: sBLI means serine-β-lactamase inhibitor; CFU means colony-forming unit, which is a group of microbes that grows from a single cell on a petri plate; DMSO means dimethyl sulfoxide; MHB means Mueller-Hinton broth; caMHB means cation-adjusted Mueller-Hinton broth; MIC means minimum inhibitory concentration—the lower the MIC, the more efficient the combination against the respective bacterial strain.
(§3) General Protocol Used in Examples 3-10 Employing a Fixed Ratio of sBLI to Antibiotic within Each Experiment:
(§4) Antimicrobial susceptibility testing (AST) by broth microdilution (MIC determination) was performed according to The European Committee on Antimicrobial Susceptibility Testing (EUCAST) guidelines (see Reading guide for broth microdilution Version 5.0, 2024: https://www.eucast.org).
(§5) Sterile clear round bottom polystyrene (non-treated) 96-well microplates (Corning 3788) were used for making serial two-fold dilutions of the antibiotic and the serine sBLI in cation-adjusted Mueller Hinton II broth (caMHB; Thermo Scientific, T3462, containing 29.4 μM Zn^2+), across the columns of the microtiter plate ([…]; columns 1-12). The checkerboard plates were all made by keeping the sBLI at a fixed ratio relative to antibiotic (absolute concentrations of each, in μg/mL) to all wells containing sample in each plate. Additionally, a set of samples were included in each test plate, where the zinc chelator was added, at various fixed concentrations, of 16 μg/mL, 8 μg/mL and/or 4 μg/mL (as specified in each Example). All sample wells contained growth medium (caMHB), and inoculated bacteria at a final inoculum between 3-7×10^5 CFU/mL. […] Synergy for the triple combination (antibiotic, sBLI, and zinc chelator) was defined as when the MIC in rows containing the zinc chelator in combination with antibiotic and sBLI (triple combination), was lower than for rows containing antibiotic and sBLI (double combination; no zinc chelator).
(§6) Two technical replicates were performed for each sample. An X in rows 1-8 in the table indicates bacterial growth, while a blank cell indicates no growth. Concentrations (μg/mL) of CAZ are given in row 0a. Concentrations (μg/mL) of AVI are given in row 0b. The zinc chelator was added in fixed concentrations, at 16 μg/mL in rows 3 and 4, at 8 μg/mL in rows 5 and 6, and 4 μg/mL in rows 7 and 8. As a control, the effect of CAZ and AVI (no zinc chelator) was tested (rows 1 and 2). All wells contained bacterial growth medium (caMHB, 29.4 μM Zn^2+) and were inoculated with the test bacterium. The grey cells indicate the CAZ MIC.
as §6, with “FEP” for “CAZ”
(§7) Two technical replicates were performed for each sample. An X in rows 1-8 in the table indicates bacterial growth, while a blank cell indicates no growth. Concentrations (μg/mL) of FEP are given in row 0a. Concentrations (μg/mL) of SUL are given in row 0b. […]

The subject of assay [2] is Klebsiella pneumoniae ST147 (NDM-1 and KPC-2). Nature of the assay: Checkerboard MIC, fixed ratio of sBLI to antibiotic (Examples 7-10). Format: cell-based. The conditions noted are these: caMHB 29.4 μM Zn2+.
From the text: as §1, §2, §3, §4, §5
as §6, with “0a).” for “0a.”
as §6, with “FEP” for “CAZ”
as §7

Assay [3] concerns gram-negative bacteria with MBL, for example Klebsiella pneumoniae, E. coli and Pseudomonas aeruginosa. The conditions noted are these: in combination with meropenem; cited from earlier work.
For assay [4], the system named is many strains of Acinetobacter baumannii. The conditions noted are these: in combination with meropenem; cited from earlier work.
Setting [5] is: zinc chelator 8 μg/mL, with CAZ and AVI (fixed ratio).
Setting [6] is: zinc chelator 8 μg/mL, with FEP and AVI (fixed ratio).
The mark [7] stands for this setting: zinc chelator 8 μg/mL, with FEP and SUL (fixed ratio).
Where [8] appears, read: zinc chelator 8 μg/mL, with FEP and TAZ (fixed ratio).
Setting [9] is: zinc chelator 16 μg/mL, with CAZ and AVI (fixed ratio).
Where [10] appears, read: zinc chelator 16 μg/mL, with FEP and AVI (fixed ratio).
Setting [11] is: zinc chelator 16 μg/mL, with FEP and SUL (fixed ratio).
The mark [12] stands for this setting: zinc chelator 16 μg/mL, with FEP and TAZ (fixed ratio).

`CN(C[C@H](O)[C@@H](O)[C@H](O)[C@H](O)CO)C(=O)c1ccc(CN(Cc2ccccn2)Cc2ccccn2)nc1` [zinc chelator]: the “synergy with the zinc chelator” value in assay [1] (zinc chelator 4 μg/mL, with CAZ and AVI (fixed ratio)) is on record as “variable synergy”; in assay [1] (zinc chelator 4 μg/mL, with FEP and AVI (fixed ratio)), “variable synergy”; in assay [1] (setting [5]), “Synergy”; in assay [1] (setting [6]), “Synergy”; in assay [1] (setting [7]), “Synergy”; in assay [1] (setting [8]) it was “Synergy”. Also, the “synergy with the zinc chelator” value in assay [1] (setting [9]) was “Synergy”; in assay [1] (setting [10]), “Synergy”; in assay [1] (setting [11]), “Synergy”; in assay [1] (setting [12]), “Synergy”; in assay [2] (zinc chelator 4 μg/mL, with FEP and TAZ (fixed ratio)), “Synergy”; in assay [2] (setting [5]) it was “Synergy”. Further, the “synergy with the zinc chelator” value in assay [2] (setting [6]), in assay [2] (setting [7]), in assay [2] (setting [8]), in assay [2] (setting [9]), in assay [2] (setting [10]) and in assay [2] (setting [11]) was “Synergy” each time. The “synergy with the zinc chelator” value in assay [2] (setting [12]) is “Synergy”. Besides, the “sensitivity of gram-negative bacteria with MBL to meropenem” value in assay [3] is listed as “the sensitivity of these bacteria towards the antibiotic drug is reinstated”. Moreover, in assay [4], the “effect of combination with meropenem” value is reported as “poor effect”.
